Results as given in patent US20190046513A1, “COMBINATION THERAPIES OF HDAC INHIBITORS AND TUBULIN INHIBITORS” (HUYA Bioscience International, LLC, priority 2017, published 2019).
Structures can show the parent of a compound that is named as a salt.

Assays:
Format in all cases: in vivo, BALB/c mice
[1] = system: 4T1 murine mammary carcinoma cells; assay: Primary tumor volume distribution, 4T1 tumor-bearing mice (Example 2); conditions: HBI-8000 50 mg/kg p.o. qd×16, eribulin 1 mg/kg i.v., FIG. 4
Description: (§1) In the present example, HBI-8000 was tested as monotherapy at 50 mg/kg, and in combination with eribulin mesylate at 1.0 mg/kg. The experiment included a vehicle-treated group, and eribulin at 1.0 mg/kg, which served as the control groups for analysis of efficacy.
(§2) Tumor Implantation: Cells were harvested during exponential growth, and resuspended in cold DMEM. Each mouse was inoculated subcutaneously in the right flank with 0.5×10^6 4T1 cells (0.1 mL of cell suspension). Tumors were calipered in two dimensions to monitor growth as their mean volume approached the desired 100-150 mm^3 range. Tumor burden was calculated using the formula:
where w=width and 1=length, in mm, of the tumor. Tumor weight may be estimated with the assumption that 1 mg is equivalent to 1 mm3 of tumor volume. Fourteen days after tumor implantation, which was designated as Day 1 of the study, animals with individual tumor volumes from animals with individual tumor volumes ranging from 75 to 108 mm3 were sorted into the “LOOK-SEE” group (n=15) and eight efficacy groups (n=10) with group mean tumor volumes of 95 mm3.
Treatment: On Day 1 of the study, mice bearing established 4T1 tumors began dosing according to the treatment plan described below. All agents were administered in dosing volumes of 10 mL/kg; volumes were adjusted according to BW of the individual animal. […]

[2] = system: 4T1 murine mammary carcinoma cells; assay: Lung metastasis count, 4T1 tumor-bearing mice (Example 1, Study Group B); conditions: Example 1, monotherapies; Day 14
Description: (§3) In the present example, HBI-8000 was tested as monotherapy at 50 mg/kg, and in combination with eribulin mesylate at 0.3 mg/kg and 1.0 mg/kg. The experiment included a vehicle-treated group, and eribulin at 0.3 mg/kg and 1.0 mg/kg, which served as the control groups for analysis of efficacy.
In the second group (Study Group B, tumor-bearing mice were monitored for the development of lung metastases until the number of metastatic nodules reached 30-50 per animal. All animals were euthanized on Day 14, the lungs removed and processed for analysis of metastatic burden.
where w=width and 1=length, in mm, of the tumor. Tumor weight may be estimated with the assumption that 1 mg is equivalent to 1 mm^3 of tumor volume. […]
Lung Metastasis: Animals were sacrificed at endpoint using isoflurane anesthesia and necropsies were performed to identify metastases. […] Percent inhibition was defined as the difference between the number of metastatic foci of the designated control group and the number of metastatic foci of the drug-treated group, expressed as a percentage of the number of metastatic foci of the designated control group: […]
Statistics: Prism (GraphPad) for Windows 6.07 was used for graphical presentations and statistical analyses. […] Logrank analysis includes the data for all animals in a group except those assessed as NTR deaths. […]

[3] = system: 4T1 murine mammary carcinoma cells; assay: Tumor growth delay, subcutaneous 4T1 tumors (Example 1, Study Group A); conditions: for Median TTE: endpoint tumor volume 1000 mm^3, n=10; for % TGD: vs vehicle group
Description: as §3
Two study groups were used; in the first group (Study Group A) tumor growth inhibition and survival were measured. Tumors were measured twice per week until the study was ended on Day 21. Each animal was euthanized when its tumor attained the endpoint tumor volume of 1000 mm^3 or on the final day of the study, whichever came first, and the time to endpoint (TTE) for each mouse was calculated. Treatment response was determined from an analysis of percent tumor growth delay (% TGD), defined as the percent increase in the median time to endpoint (TTE) for treated versus control mice; and by log-rank significance of differences in survival among groups and regression responses.
Mice: Female BALB/c mice (Charles River Laboratories) were seven weeks old, with a body weight (BW) range of 15.6 to 20.2 grams on Day 1 of the study. The animals were fed ad libitum water (reverse osmosis, 1 ppm Cl), and NIH 31 Modified and Irradiated Lab Diet® consisting of 18.0% crude protein, 5.0% crude fat, and 5.0% crude fiber. The mice were housed on irradiated Enrich-O'Cobs™ Laboratory Animal Bedding in static microisolators on a 12-hour light cycle at 20-22° C. (68-72° F.) and 40-60% humidity.
Tumor Cells: 4T1 murine mammary carcinoma cells were maintained in Dulbecco's Modified Eagle Medium (DMEM) supplemented with 10% fetal bovine serum and 2 mM glutamine, 100 units/mL penicillin G sodium, 100 μg/mL streptomycin sulfate, and 25 μg/mL gentamicin. Cell cultures were maintained in tissue culture flasks in a humidified incubator at 37° C., in an atmosphere of 5% CO2 and 95% air.
as §2, with “1×10^6” for “0.5×10^6”
where w=width and 1=length, in mm, of the tumor. Tumor weight may be estimated with the assumption that 1 mg is equivalent to 1 mm^3 of tumor volume. Nine days after tumor implantation, which was designated as Day 1 of the study, animals with individual tumor volumes from 108 to 126 mm^3 were sorted into treatment groups. For Study Group A the animals were sorted into 6 treatment groups (Table 1; n=10/group) with group mean tumor volume of 117 mm^3. For Study Group B the animals were also sorted into 6 treatment groups (Table 1; n=5/group) with group mean tumor volume of 117 mm^3.
Tumor Growth Delay: Tumors were measured using calipers twice per week, and each animal was euthanized when its tumor reached a volume of 1000 mm^3 or at the end of the study (D47), whichever came first. Animals that exited the study for tumor volume endpoint were documented as euthanized for tumor progression (TP), with the date of euthanasia. The time to endpoint (TTE) for analysis was calculated for each mouse by the following equation: […]
where TTE is expressed in days, endpoint volume is expressed in mm^3, b is the intercept, and m is the slope of the line obtained by linear regression of a log-transformed tumor growth data set. The data set consisted of the first observation that exceeded the endpoint volume used in analysis and the three consecutive observations that immediately preceded the attainment of this endpoint volume. The calculated TTE is usually less than the TP date, the day on which the animal was euthanized for tumor burden. […]

[4] = system: 4T1 murine mammary carcinoma cells; assay: Lung metastasis count, 4T1 tumor-bearing mice (Example 2); conditions: HBI-8000 50 mg/kg p.o. qd×16, eribulin 1 mg/kg i.v., Day 18, FIG. 3
Description: as §1
Two study groups were used; in the first group, a sentinel group (termed LOOK-SEE) tumor-bearing mice were monitored for the development of lung metastases until the number of metastatic nodules reached 30-50 per animal. After meeting that criteria, all animals in Group B, the main study group, were euthanized on Day 18, the lungs removed and processed for analysis of metastatic burden.
as §2
where w=width and 1=length, in mm, of the tumor. Tumor weight may be estimated with the assumption that 1 mg is equivalent to 1 mm3 of tumor volume. […]

[5] = HBI-8000 50 mg/kg p.o., qd × 21
[6] = Eribulin mesylate 0.3 mg/kg i.v., qowk × 2
[7] = Eribulin mesylate 1.0 mg/kg i.v., qowk × 2

| Structure (SMILES) | primary tumor volume distribution [1] | number of lung metastatic foci [2] | tumor volume distribution ([3]; Example 1, HBI-8000 monotherapy 50 mg/kg, P<0.01) | Median TTE [3, 5] | % TGD [3, 5] | metastatic lung foci [4] | Median TTE [3, 6] | % TGD [3, 6] | Median TTE [3, 7] | % TGD [3, 7] |
| --- | --- | --- | --- | --- | --- | --- | --- | --- | --- | --- |
| Nc1cc(F)ccc1NC(=O)c1ccc(CNC(=O)/C=C/c2cccnc2)cc1 [HBI-8000, N-(2-amino-4-fluorophenyl)-4-[[[(2E)-1-oxo-3-(3-pyridinyl)-2-propen-1-yl]amino]methyl]benzamide] | statistically significant (P<0.001) decrease in primary tumor volume distribution compared to vehicle controls | did not significantly inhibit the number of lung metastatic foci | significant ((P<0.01) reduction in the tumor volume distribution | 18.8 days | 12% | statistically significant (P<0.05) decrease in metastatic lung foci |  |  |  |  |
| C=C1C[C@@H]2CC[C@@]34C[C@H]5O[C@H]6[C@@H](O3)[C@H]3OC(CC[C@@H]3O[C@H]6C5O4)CC(=O)C[C@@H]3[C@@H](OC)[C@@H](C[C@H](O)CN)O[C@H]3CC3O[C@@H](CCC1O2)C[C@@H](C)C3=C [Eribulin mesylate, 11,15:18,21:24,28 Triepoxy-7,9-ethano-12,15-methano-9H, 15H-furo[3,2-i]furo[2′,3′: 5,6]pyrano[4,3b][1,4]dioxacyclopentacosin-5(4H)-one,2-[(2S)-3-amino-2-hydroxypropyl]hexacosahydro-3 methoxy-26-methyl-20,27-bis(methylene)-, (2R,3R,3aS,7R,8aS,9S,10aR,11S,12R,13aR,13bS,15S,18S,21 S,24S,26R,28R,29aS)-, methanesulfonate (salt)] | did not produce a statistically significant decrease in primary tumor volume distribution | did not significantly inhibit the number of lung metastatic foci |  |  |  | did not produce a statistically significant decrease in metastatic lung foci | 17.8 days | 6% | 17.6 days | 5% |
